Source: ChEMBL document CHEMBL1250513, “(R,S)-anti-1-amino-2-[18F]fluorocyclopentyl-1-carboxylic acid: synthesis from racemic 2-benzyloxycyclopentanone and biological evaluation for brain tumor imaging with positron emission tomography” (J Med Chem, 2010)

Legend:
Liver [1] = experiment: Biodistribution in rat 9L tumor bearing fisher rat liver at 40 to 50 uCi, iv after 60 mins; assay type: ADME, organism-based; settings: in vivo, 1 h
Brain [2] = experiment: Biodistribution in rat 9L tumor bearing fisher rat brain at 40 to 50 uCi, iv after 30 mins; assay type: ADME, organism-based; settings: in vivo, 0.5 h
Testes [3] = experiment: Biodistribution in rat 9L tumor bearing fisher rat testes at 40 to 50 uCi, iv after 120 mins; assay type: ADME, organism-based, Testis; settings: in vivo, 2 h
Muscle tissue [4] = experiment: Biodistribution in rat 9L tumor bearing fisher rat muscle at 40 to 50 uCi, iv after 60 mins; assay type: ADME, organism-based; settings: in vivo, 1 h
Spleen [5] = experiment: Biodistribution in rat 9L tumor bearing fisher rat spleen at 40 to 50 uCi, iv after 30 mins; assay type: ADME, organism-based; settings: in vivo, 0.5 h
[6] = Biodistribution in rat 9L tumor bearing fisher rat tumor at 40 to 50 uCi, iv after 120 mins; assay type: ADME, organism-based, Neoplasm; settings: in vivo, 2 h
Lung [7] = experiment: Biodistribution in rat 9L tumor bearing fisher rat lung at 40 to 50 uCi, iv after 60 mins; assay type: ADME, organism-based; settings: in vivo, 1 h
Muscle tissue [8] = experiment: Biodistribution in rat 9L tumor bearing fisher rat muscle at 40 to 50 uCi, iv after 30 mins; assay type: ADME, organism-based; settings: in vivo, 0.5 h
Brain [9] = experiment: Biodistribution in rat 9L tumor bearing fisher rat brain at 40 to 50 uCi, iv after 60 mins; assay type: ADME, organism-based; settings: in vivo, 1 h
Pancreas [10] = experiment: Biodistribution in rat 9L tumor bearing fisher rat pancreas at 40 to 50 uCi, iv after 60 mins; assay type: ADME, organism-based; settings: in vivo, 1 h
Heart [11] = experiment: Biodistribution in rat 9L tumor bearing fisher rat heart at 40 to 50 uCi, iv after 120 mins; assay type: ADME, organism-based; settings: in vivo, 2 h
Liver [12] = experiment: Biodistribution in rat 9L tumor bearing fisher rat liver at 40 to 50 uCi, iv after 30 mins; assay type: ADME, organism-based; settings: in vivo, 0.5 h
Testes [13] = experiment: Biodistribution in rat 9L tumor bearing fisher rat testes at 40 to 50 uCi, iv after 60 mins; assay type: ADME, organism-based, Testis; settings: in vivo, 1 h
Muscle tissue [14] = experiment: Biodistribution in rat 9L tumor bearing fisher rat muscle at 40 to 50 uCi, iv after 15 mins; assay type: ADME, organism-based; settings: in vivo, 0.25 h
Lung [15] = experiment: Biodistribution in rat 9L tumor bearing fisher rat lung at 40 to 50 uCi, iv after 30 mins; assay type: ADME, organism-based; settings: in vivo, 0.5 h
Heart [16] = experiment: Biodistribution in rat 9L tumor bearing fisher rat heart at 40 to 50 uCi, iv after 30 mins; assay type: ADME, organism-based; settings: in vivo, 0.5 h
Spleen [17] = experiment: Biodistribution in rat 9L tumor bearing fisher rat spleen at 40 to 50 uCi, iv after 60 mins; assay type: ADME, organism-based; settings: in vivo, 1 h
Lung [18] = experiment: Biodistribution in rat 9L tumor bearing fisher rat lung at 40 to 50 uCi, iv after 15 mins; assay type: ADME, organism-based; settings: in vivo, 0.25 h
Spleen [19] = experiment: Biodistribution in rat 9L tumor bearing fisher rat spleen at 40 to 50 uCi, iv after 120 mins; assay type: ADME, organism-based; settings: in vivo, 2 h
Testes [20] = experiment: Biodistribution in rat 9L tumor bearing fisher rat testes at 40 to 50 uCi, iv after 15 mins; assay type: ADME, organism-based, Testis; settings: in vivo, 0.25 h
Bone [21] = experiment: Biodistribution in rat 9L tumor bearing fisher rat bone at 40 to 50 uCi, iv after 15 mins; assay type: ADME, organism-based, Bone element; settings: in vivo, 0.25 h
Kidney [22] = experiment: Biodistribution in rat 9L tumor bearing fisher rat kidney at 40 to 50 uCi, iv after 15 mins; assay type: ADME, organism-based; settings: in vivo, 0.25 h
Heart [23] = experiment: Biodistribution in rat 9L tumor bearing fisher rat heart at 40 to 50 uCi, iv after 60 mins; assay type: ADME, organism-based; settings: in vivo, 1 h
[24] = Biodistribution in rat 9L tumor bearing fisher rat tumor at 40 to 50 uCi, iv after 30 mins; assay type: ADME, organism-based, Neoplasm; settings: in vivo, 0.5 h
[25] = Ratio of drug uptake in tumor to brain in rat 9L tumor bearing fisher rat […] at 40 to 50 uCi, iv after 60 mins; assay type: ADME, organism-based; settings: in vivo, 1 h
Bone [26] = experiment: Biodistribution in rat 9L tumor bearing fisher rat bone at 40 to 50 uCi, iv after 30 mins; assay type: ADME, organism-based, Bone element; settings: in vivo, 0.5 h
Blood [27] = experiment: Biodistribution in rat 9L tumor bearing fisher rat blood at 40 to 50 uCi, iv after 15 mins; assay type: ADME, organism-based; settings: in vivo, 0.25 h
Blood [28] = experiment: Biodistribution in rat 9L tumor bearing fisher rat blood at 40 to 50 uCi, iv after 120 mins; assay type: ADME, organism-based; settings: in vivo, 2 h
Lung [29] = experiment: Biodistribution in rat 9L tumor bearing fisher rat lung at 40 to 50 uCi, iv after 120 mins; assay type: ADME, organism-based; settings: in vivo, 2 h
Blood [30] = experiment: Biodistribution in rat 9L tumor bearing fisher rat blood at 40 to 50 uCi, iv after 30 mins; assay type: ADME, organism-based; settings: in vivo, 0.5 h
Brain [31] = experiment: Biodistribution in rat 9L tumor bearing fisher rat brain at 40 to 50 uCi, iv after 15 mins; assay type: ADME, organism-based; settings: in vivo, 0.25 h
Pancreas [32] = experiment: Biodistribution in rat 9L tumor bearing fisher rat pancreas at 40 to 50 uCi, iv after 30 mins; assay type: ADME, organism-based; settings: in vivo, 0.5 h
Kidney [33] = experiment: Biodistribution in rat 9L tumor bearing fisher rat kidney at 40 to 50 uCi, iv after 60 mins; assay type: ADME, organism-based; settings: in vivo, 1 h
Heart [34] = experiment: Biodistribution in rat 9L tumor bearing fisher rat heart at 40 to 50 uCi, iv after 15 mins; assay type: ADME, organism-based; settings: in vivo, 0.25 h
Kidney [35] = experiment: Biodistribution in rat 9L tumor bearing fisher rat kidney at 40 to 50 uCi, iv after 30 mins; assay type: ADME, organism-based; settings: in vivo, 0.5 h
Bone [36] = experiment: Biodistribution in rat 9L tumor bearing fisher rat bone at 40 to 50 uCi, iv after 60 mins; assay type: ADME, organism-based, Bone element; settings: in vivo, 1 h
Spleen [37] = experiment: Biodistribution in rat 9L tumor bearing fisher rat spleen at 40 to 50 uCi, iv after 15 mins; assay type: ADME, organism-based; settings: in vivo, 0.25 h
Blood [38] = experiment: Biodistribution in rat 9L tumor bearing fisher rat blood at 40 to 50 uCi, iv after 60 mins; assay type: ADME, organism-based; settings: in vivo, 1 h
Muscle tissue [39] = experiment: Biodistribution in rat 9L tumor bearing fisher rat muscle at 40 to 50 uCi, iv after 120 mins; assay type: ADME, organism-based; settings: in vivo, 2 h
[40] = Biodistribution in rat 9L tumor bearing fisher rat tumor at 40 to 50 uCi, iv after 15 mins; assay type: ADME, organism-based, Neoplasm; settings: in vivo, 0.25 h
Liver [41] = experiment: Biodistribution in rat 9L tumor bearing fisher rat liver at 40 to 50 uCi, iv after 120 mins; assay type: ADME, organism-based; settings: in vivo, 2 h
Kidney [42] = experiment: Biodistribution in rat 9L tumor bearing fisher rat kidney at 40 to 50 uCi, iv after 120 mins; assay type: ADME, organism-based; settings: in vivo, 2 h
[43] = Ratio of drug uptake in tumor to brain in rat 9L tumor bearing fisher rat […] at 40 to 50 uCi, iv after 30 mins; assay type: ADME, organism-based; settings: in vivo, 0.5 h
Brain [44] = experiment: Biodistribution in rat 9L tumor bearing fisher rat brain at 40 to 50 uCi, iv after 120 mins; assay type: ADME, organism-based; settings: in vivo, 2 h
Pancreas [45] = experiment: Biodistribution in rat 9L tumor bearing fisher rat pancreas at 40 to 50 uCi, iv after 120 mins; assay type: ADME, organism-based; settings: in vivo, 2 h
Pancreas [46] = experiment: Biodistribution in rat 9L tumor bearing fisher rat pancreas at 40 to 50 uCi, iv after 15 mins; assay type: ADME, organism-based; settings: in vivo, 0.25 h
Bone [47] = experiment: Biodistribution in rat 9L tumor bearing fisher rat bone at 40 to 50 uCi, iv after 120 mins; assay type: ADME, organism-based, Bone element; settings: in vivo, 2 h
[48] = Ratio of drug uptake in tumor to brain in rat 9L tumor bearing fisher rat […] at 40 to 50 uCi, iv after 120 mins; assay type: ADME, organism-based; settings: in vivo, 2 h
[49] = Ratio of drug uptake in tumor to brain in rat 9L tumor bearing fisher rat […] at 40 to 50 uCi, iv after 15 mins; assay type: ADME, organism-based; settings: in vivo, 0.25 h
Liver [50] = experiment: Biodistribution in rat 9L tumor bearing fisher rat liver at 40 to 50 uCi, iv after 15 mins; assay type: ADME, organism-based; settings: in vivo, 0.25 h
Testes [51] = experiment: Biodistribution in rat 9L tumor bearing fisher rat testes at 40 to 50 uCi, iv after 30 mins; assay type: ADME, organism-based, Testis; settings: in vivo, 0.5 h
[52] = Biodistribution in rat 9L tumor bearing fisher rat tumor at 40 to 50 uCi, iv after 60 mins; assay type: ADME, organism-based, Neoplasm; settings: in vivo, 1 h

Which Drug uptake (Liver [1]) does the source give for `N[C@@]1(C(=O)O)CCC[C@@H]1[18F]` (racemic) here?
The Drug uptake was 0.41 % ID/g.

And the Drug uptake (Brain [2])?
Its Drug uptake is 0.13 % ID/g.

What about the Drug uptake (Testes [3]) of the same compound?
The Drug uptake was 0.13 % ID/g.

And the Drug uptake (Muscle tissue [4])?
Its Drug uptake is 0.24 % ID/g.

And the Drug uptake (Spleen [5])?
Its Drug uptake is 0.48 % ID/g.

What about the Drug uptake [6] of the same compound?
Its Drug uptake is 0.98 % ID/g.

And the Drug uptake (Lung [7])?
Its Drug uptake is 0.8 % ID/g.

And the Drug uptake (Muscle tissue [8])?
The Drug uptake was 0.28 % ID/g.

What about the Drug uptake (Brain [9]) of the same compound?
The Drug uptake was 0.1 % ID/g.

And the Drug uptake (Pancreas [10])?
The Drug uptake was 2.65 % ID/g.

And the Drug uptake (Heart [11])?
The Drug uptake was 0.28 % ID/g.

What about the Drug uptake (Liver [12]) of the same compound?
The Drug uptake was 0.63 % ID/g.

What about the Drug uptake (Testes [13]) of the same compound?
Its Drug uptake is 0.14 % ID/g.

And the Drug uptake (Muscle tissue [14])?
Its Drug uptake is 0.28 % ID/g.

What about the Drug uptake (Lung [15]) of the same compound?
The Drug uptake was 1.13 % ID/g.

And the Drug uptake (Heart [16])?
Its Drug uptake is 0.44 % ID/g.

And the Drug uptake (Spleen [17])?
The Drug uptake was 0.3 % ID/g.

What about the Drug uptake (Lung [18]) of the same compound?
The Drug uptake was 1.53 % ID/g.

What about the Drug uptake (Spleen [19]) of the same compound?
The Drug uptake was 0.18 % ID/g.

And the Drug uptake (Testes [20])?
Its Drug uptake is 0.23 % ID/g.

And the Drug uptake (Bone [21])?
Its Drug uptake is 0.27 % ID/g.

And the Drug uptake (Kidney [22])?
Its Drug uptake is 4.87 % ID/g.

And the Drug uptake (Heart [23])?
Its Drug uptake is 0.3 % ID/g.

What about the Drug uptake [24] of the same compound?
Its Drug uptake is 1.68 % ID/g.

And the Ratio [25]?
Its Ratio is 12.

What about the Drug uptake (Bone [26]) of the same compound?
The Drug uptake was 0.17 % ID/g.

What about the Drug uptake (Blood [27]) of the same compound?
The Drug uptake was 0.48 % ID/g.

And the Drug uptake (Blood [28])?
Its Drug uptake is 0.14 % ID/g.

What about the Drug uptake (Lung [29]) of the same compound?
Its Drug uptake is 0.78 % ID/g.

And the Drug uptake (Blood [30])?
Its Drug uptake is 0.29 % ID/g.

What about the Drug uptake (Brain [31]) of the same compound?
The Drug uptake was 0.12 % ID/g.

And the Drug uptake (Pancreas [32])?
The Drug uptake was 2.91 % ID/g.

And the Drug uptake (Kidney [33])?
The Drug uptake was 2 % ID/g.

And the Drug uptake (Heart [34])?
The Drug uptake was 0.56 % ID/g.

And the Drug uptake (Kidney [35])?
Its Drug uptake is 3.44 % ID/g.

And the Drug uptake (Bone [36])?
Its Drug uptake is 0.14 % ID/g.

And the Drug uptake (Spleen [37])?
The Drug uptake was 0.64 % ID/g.

And the Drug uptake (Blood [38])?
Its Drug uptake is 0.21 % ID/g.

What about the Drug uptake (Muscle tissue [39]) of the same compound?
The Drug uptake was 0.17 % ID/g.

What about the Drug uptake [40] of the same compound?
Its Drug uptake is 0.57 % ID/g.

What about the Drug uptake (Liver [41]) of the same compound?
The Drug uptake was 0.4 % ID/g.

What about the Drug uptake (Kidney [42]) of the same compound?
Its Drug uptake is 0.89 % ID/g.

And the Ratio [43]?
Its Ratio is 13.

What about the Drug uptake (Brain [44]) of the same compound?
Its Drug uptake is 0.1 % ID/g.

And the Drug uptake (Pancreas [45])?
The Drug uptake was 1.84 % ID/g.

What about the Drug uptake (Pancreas [46]) of the same compound?
The Drug uptake was 2.77 % ID/g.

And the Drug uptake (Bone [47])?
Its Drug uptake is 0.13 % ID/g.

What about the Ratio [48] of the same compound?
Its Ratio is 10.

What about the Ratio [49] of the same compound?
The Ratio was 5.

And the Drug uptake (Liver [50])?
The Drug uptake was 0.93 % ID/g.

And the Drug uptake (Testes [51])?
The Drug uptake was 0.18 % ID/g.

What about the Drug uptake [52] of the same compound?
The Drug uptake was 1.24 % ID/g.
